Assay results published in the NIST ThermoML archive (doi:10.1021/acs.jced.5b00934).
Numbers after ± are expanded uncertainties.

Details: Liquid, Vibrating tube method

Structure (SMILES): CCC(C)O (stereo not drawn) [butan-2-ol]
- mass density (343.15 K, 47992 kPa): 801 ± 1 kg/m3
- mass density (343.15 K, 49990 kPa): 802.3 ± 1 kg/m3
- mass density (343.15 K, 52005 kPa): 803.6 ± 1 kg/m3
- mass density (343.15 K, 55047 kPa): 805.7 ± 1 kg/m3
- mass density (343.15 K, 57941 kPa): 807.5 ± 1 kg/m3
- mass density (343.15 K, 59985 kPa): 808.8 ± 1 kg/m3
- mass density (343.15 K, 61963 kPa): 810 ± 1 kg/m3
- mass density (343.15 K, 64974 kPa): 811.9 ± 1 kg/m3
- mass density (343.16 K, 2963 kPa): 763.4 ± 0.8 kg/m3
- mass density (343.16 K, 66132 kPa): 812.5 ± 1 kg/m3
- mass density (348.15 K, 99 kPa): 755 ± 0.8 kg/m3
- mass density (348.15 K, 293 kPa): 755.2 ± 0.8 kg/m3
- mass density (348.15 K, 632 kPa): 755.6 ± 0.8 kg/m3
- mass density (348.15 K, 926 kPa): 756 ± 0.8 kg/m3
- mass density (348.15 K, 1007 kPa): 756 ± 0.8 kg/m3
- mass density (348.15 K, 1961 kPa): 757.1 ± 0.8 kg/m3
- mass density (348.15 K, 2971 kPa): 758.2 ± 0.8 kg/m3
- mass density (348.15 K, 4887 kPa): 760.3 ± 0.8 kg/m3
- mass density (348.15 K, 6901 kPa): 762.5 ± 0.8 kg/m3
- mass density (348.15 K, 8976 kPa): 764.6 ± 0.9 kg/m3
- mass density (348.15 K, 10049 kPa): 765.7 ± 0.9 kg/m3
- mass density (348.15 K, 12159 kPa): 767.9 ± 0.9 kg/m3
- mass density (348.15 K, 15134 kPa): 770.8 ± 0.9 kg/m3
- mass density (348.15 K, 18029 kPa): 773.4 ± 0.9 kg/m3
- mass density (348.15 K, 20029 kPa): 775.3 ± 0.9 kg/m3
- mass density (348.15 K, 22105 kPa): 777.1 ± 0.9 kg/m3
- mass density (348.15 K, 24943 kPa): 779.5 ± 0.9 kg/m3
- mass density (348.15 K, 27937 kPa): 782.1 ± 0.9 kg/m3
- mass density (348.15 K, 29922 kPa): 783.7 ± 0.9 kg/m3
- mass density (348.15 K, 32051 kPa): 785.4 ± 0.9 kg/m3
- mass density (348.15 K, 33089 kPa): 786.2 ± 0.9 kg/m3
- mass density (348.15 K, 33156 kPa): 786.2 ± 0.9 kg/m3
- mass density (348.15 K, 34089 kPa): 786.8 ± 0.9 kg/m3
- mass density (348.15 K, 35121 kPa): 787.6 ± 0.9 kg/m3
- mass density (348.15 K, 37976 kPa): 789.8 ± 0.9 kg/m3
- mass density (348.15 K, 40028 kPa): 791.3 ± 1 kg/m3
- mass density (348.15 K, 42107 kPa): 792.9 ± 1 kg/m3
- mass density (348.15 K, 44933 kPa): 794.9 ± 1 kg/m3
- mass density (348.15 K, 48043 kPa): 797.1 ± 1 kg/m3
- mass density (348.15 K, 50077 kPa): 798.4 ± 1 kg/m3
- mass density (348.15 K, 52078 kPa): 799.8 ± 1 kg/m3
- mass density (348.15 K, 54947 kPa): 801.7 ± 1 kg/m3
- mass density (348.15 K, 58004 kPa): 803.6 ± 1 kg/m3
- mass density (348.15 K, 60105 kPa): 805.1 ± 1 kg/m3
- mass density (348.15 K, 62134 kPa): 806.4 ± 1 kg/m3
- mass density (348.15 K, 64952 kPa): 808.1 ± 1 kg/m3
- mass density (348.15 K, 66089 kPa): 808.8 ± 1 kg/m3
- mass density (353.15 K, 101 kPa): 749.7 ± 0.8 kg/m3
- mass density (353.15 K, 309 kPa): 749.9 ± 0.8 kg/m3
- mass density (353.15 K, 488 kPa): 750.2 ± 0.8 kg/m3
- mass density (353.15 K, 937 kPa): 750.7 ± 0.8 kg/m3
- mass density (353.15 K, 997 kPa): 750.8 ± 0.8 kg/m3
- mass density (353.15 K, 2036 kPa): 752 ± 0.8 kg/m3
- mass density (353.15 K, 5052 kPa): 755.5 ± 0.8 kg/m3
- mass density (353.15 K, 7035 kPa): 757.6 ± 0.8 kg/m3
- mass density (353.15 K, 8919 kPa): 759.7 ± 0.9 kg/m3
- mass density (353.15 K, 10172 kPa): 761 ± 0.9 kg/m3
- mass density (353.15 K, 14941 kPa): 765.8 ± 0.9 kg/m3
- mass density (353.15 K, 20147 kPa): 770.7 ± 0.9 kg/m3
- mass density (353.15 K, 22188 kPa): 772.6 ± 0.9 kg/m3
- mass density (353.15 K, 25053 kPa): 775.1 ± 0.9 kg/m3
- mass density (353.15 K, 28045 kPa): 777.7 ± 0.9 kg/m3
- mass density (353.15 K, 30122 kPa): 779.4 ± 0.9 kg/m3
- mass density (353.15 K, 31946 kPa): 780.9 ± 0.9 kg/m3
- mass density (353.15 K, 32790 kPa): 781.6 ± 0.9 kg/m3
- mass density (353.15 K, 32795 kPa): 781.5 ± 0.9 kg/m3
- mass density (353.15 K, 34025 kPa): 782.5 ± 0.9 kg/m3
- mass density (353.15 K, 35037 kPa): 783.3 ± 0.9 kg/m3
- mass density (353.15 K, 39961 kPa): 787.1 ± 1 kg/m3
- mass density (353.15 K, 42055 kPa): 788.7 ± 1 kg/m3
- mass density (353.15 K, 45025 kPa): 790.9 ± 1 kg/m3
- mass density (353.15 K, 47906 kPa): 793 ± 1 kg/m3
- mass density (353.15 K, 51988 kPa): 795.8 ± 1 kg/m3
- mass density (353.15 K, 58003 kPa): 799.9 ± 1 kg/m3
- mass density (353.15 K, 62118 kPa): 802.6 ± 1 kg/m3
- mass density (353.15 K, 65015 kPa): 804.4 ± 1 kg/m3
- mass density (353.15 K, 66227 kPa): 805.2 ± 1 kg/m3
- mass density (353.16 K, 2973 kPa): 753.1 ± 0.8 kg/m3
- mass density (353.16 K, 12072 kPa): 762.9 ± 0.9 kg/m3
- mass density (353.16 K, 18090 kPa): 768.8 ± 0.9 kg/m3
- mass density (353.16 K, 38061 kPa): 785.7 ± 0.9 kg/m3
- mass density (353.16 K, 49998 kPa): 794.4 ± 1 kg/m3
- mass density (353.16 K, 54972 kPa): 797.7 ± 1 kg/m3
- mass density (353.16 K, 60035 kPa): 801.2 ± 1 kg/m3
- mass density (358.15 K, 94 kPa): 744.2 ± 0.8 kg/m3
- mass density (358.15 K, 317 kPa): 744.5 ± 0.8 kg/m3
- mass density (358.15 K, 531 kPa): 744.8 ± 0.8 kg/m3
- mass density (358.15 K, 912 kPa): 745.3 ± 0.8 kg/m3
- mass density (358.15 K, 2002 kPa): 746.6 ± 0.8 kg/m3
- mass density (358.15 K, 6978 kPa): 752.5 ± 0.8 kg/m3
- mass density (358.15 K, 8996 kPa): 754.7 ± 0.9 kg/m3
- mass density (358.15 K, 14843 kPa): 760.9 ± 0.9 kg/m3
- mass density (358.15 K, 20099 kPa): 766.2 ± 0.9 kg/m3
- mass density (358.15 K, 22025 kPa): 767.9 ± 0.9 kg/m3
- mass density (358.15 K, 25009 kPa): 770.7 ± 0.9 kg/m3
- mass density (358.15 K, 33055 kPa): 777.5 ± 0.9 kg/m3
- mass density (358.15 K, 33103 kPa): 777.7 ± 0.9 kg/m3
- mass density (358.15 K, 34173 kPa): 778.4 ± 0.9 kg/m3
- mass density (358.15 K, 35154 kPa): 779.2 ± 0.9 kg/m3
- mass density (358.15 K, 38016 kPa): 781.5 ± 1 kg/m3
- mass density (358.15 K, 40036 kPa): 783.1 ± 1 kg/m3
- mass density (358.15 K, 42070 kPa): 784.7 ± 1 kg/m3
- mass density (358.15 K, 44944 kPa): 786.8 ± 1 kg/m3
- mass density (358.15 K, 47921 kPa): 789 ± 1 kg/m3
- mass density (358.15 K, 50038 kPa): 790.5 ± 1 kg/m3
- mass density (358.15 K, 52069 kPa): 792 ± 1 kg/m3
- mass density (358.15 K, 55065 kPa): 794.1 ± 1 kg/m3
- mass density (358.15 K, 58024 kPa): 796.1 ± 1 kg/m3
- mass density (358.15 K, 60060 kPa): 797.4 ± 1 kg/m3
- mass density (358.15 K, 62217 kPa): 798.9 ± 1 kg/m3
- mass density (358.15 K, 65051 kPa): 800.7 ± 1 kg/m3
- mass density (358.15 K, 66079 kPa): 801.3 ± 1.1 kg/m3
- mass density (358.16 K, 997 kPa): 745.3 ± 0.8 kg/m3
- mass density (358.16 K, 2956 kPa): 747.8 ± 0.8 kg/m3
- mass density (358.16 K, 4886 kPa): 750.1 ± 0.8 kg/m3
- mass density (358.16 K, 10124 kPa): 755.9 ± 0.9 kg/m3
- mass density (358.16 K, 11961 kPa): 757.9 ± 0.9 kg/m3
- mass density (358.16 K, 17993 kPa): 764.1 ± 0.9 kg/m3
- mass density (358.16 K, 27942 kPa): 773.3 ± 0.9 kg/m3
- mass density (358.16 K, 30089 kPa): 775.1 ± 0.9 kg/m3
- mass density (358.16 K, 32063 kPa): 776.8 ± 0.9 kg/m3
- mass density (363.15 K, 99 kPa): 738.7 ± 0.8 kg/m3
- mass density (363.15 K, 349 kPa): 739 ± 0.8 kg/m3
- mass density (363.15 K, 512 kPa): 739.3 ± 0.8 kg/m3
- mass density (363.15 K, 910 kPa): 739.8 ± 0.8 kg/m3
- mass density (363.15 K, 3038 kPa): 742.5 ± 0.8 kg/m3
- mass density (363.15 K, 12190 kPa): 753.3 ± 0.9 kg/m3
- mass density (363.15 K, 25101 kPa): 766.2 ± 0.9 kg/m3
- mass density (363.15 K, 30034 kPa): 770.6 ± 0.9 kg/m3
- mass density (363.15 K, 33002 kPa): 773.1 ± 0.9 kg/m3
- mass density (363.15 K, 33042 kPa): 773.2 ± 0.9 kg/m3
- mass density (363.15 K, 34072 kPa): 774 ± 0.9 kg/m3
- mass density (363.15 K, 40041 kPa): 779 ± 1 kg/m3
- mass density (363.15 K, 42237 kPa): 780.7 ± 1 kg/m3
- mass density (363.15 K, 44948 kPa): 782.8 ± 1 kg/m3
- mass density (363.15 K, 48033 kPa): 785.1 ± 1 kg/m3
- mass density (363.15 K, 50015 kPa): 786.6 ± 1 kg/m3
- mass density (363.15 K, 52088 kPa): 788.1 ± 1 kg/m3
- mass density (363.15 K, 55038 kPa): 790.2 ± 1 kg/m3
- mass density (363.15 K, 57996 kPa): 792.2 ± 1 kg/m3
- mass density (363.15 K, 60085 kPa): 793.7 ± 1 kg/m3
- mass density (363.15 K, 62081 kPa): 795 ± 1 kg/m3
- mass density (363.15 K, 65016 kPa): 796.9 ± 1.1 kg/m3
- mass density (363.15 K, 66010 kPa): 797.6 ± 1.1 kg/m3
- mass density (363.16 K, 1038 kPa): 739.9 ± 0.8 kg/m3
- mass density (363.16 K, 2013 kPa): 741.2 ± 0.8 kg/m3
- mass density (363.16 K, 5065 kPa): 745 ± 0.8 kg/m3
- mass density (363.16 K, 7039 kPa): 747.4 ± 0.9 kg/m3
- mass density (363.16 K, 8975 kPa): 749.7 ± 0.9 kg/m3
- mass density (363.16 K, 10001 kPa): 750.8 ± 0.9 kg/m3
- mass density (363.16 K, 14664 kPa): 755.9 ± 0.9 kg/m3
- mass density (363.16 K, 17691 kPa): 759 ± 0.9 kg/m3
- mass density (363.16 K, 20116 kPa): 761.4 ± 0.9 kg/m3
- mass density (363.16 K, 22089 kPa): 763.4 ± 0.9 kg/m3
- mass density (363.16 K, 28014 kPa): 768.8 ± 0.9 kg/m3
- mass density (363.16 K, 32089 kPa): 772.4 ± 0.9 kg/m3
- mass density (363.16 K, 35096 kPa): 775 ± 0.9 kg/m3
- mass density (363.16 K, 37960 kPa): 777.4 ± 1 kg/m3
